# Biological target: human CYP3A4 (Homo sapiens, UniProt P08684)
# Test: In vitro evaluations of CYP3A4 metabolism and inhibition
# Format: in vitro ADME
# human CYP3A4, sequence (P08684 whole entry): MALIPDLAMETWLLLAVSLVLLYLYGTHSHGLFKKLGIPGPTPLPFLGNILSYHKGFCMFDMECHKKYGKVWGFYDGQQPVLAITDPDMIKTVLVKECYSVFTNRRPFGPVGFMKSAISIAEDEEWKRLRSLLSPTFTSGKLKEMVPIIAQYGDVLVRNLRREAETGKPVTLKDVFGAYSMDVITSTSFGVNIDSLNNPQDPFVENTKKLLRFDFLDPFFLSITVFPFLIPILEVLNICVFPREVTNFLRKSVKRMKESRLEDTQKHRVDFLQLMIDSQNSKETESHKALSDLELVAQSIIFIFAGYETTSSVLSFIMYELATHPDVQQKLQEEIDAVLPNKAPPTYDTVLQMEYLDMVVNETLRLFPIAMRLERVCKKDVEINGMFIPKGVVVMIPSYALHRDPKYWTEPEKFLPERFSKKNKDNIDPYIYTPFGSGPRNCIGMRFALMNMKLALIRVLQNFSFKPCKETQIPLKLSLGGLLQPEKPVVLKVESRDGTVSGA
smiles,measurement,setting,value
Cc1cnc(Nc2ccc(OCCN3CCCC3)cc2)nc1Nc1cccc(S(=O)(=O)NC(C)(C)C)c1 [N-tert-butyl-3-[(5-methyl-2-{[4-(2-pyrrolidin-1-ylethoxy)phenyl]amino}pyrimidin-4-yl)amino]benzenesulfonamide],CYP3A4 inhibition,in vitro data,inhibits CYP3A4 in a time-dependent fashion
same,metabolism,in vitro evaluations,metabolized by human CYP3A4
